Test results published in ChEMBL document CHEMBL1157233, “5,6:8,9-diepoxy and other cytotoxic sterols from the marine sponge Homaxinella sp” (2006).
Converted amounts (≈) assume the structure as drawn.

What was measured:
Assay type in all cases: functional
Settings in all cases: read-out: ED50 (the source's name)
[1] = test system: SK-OV-3; assay: Cytotoxicity against human SKOV3 cells
[2] = test system: A549; assay: Cytotoxicity against human A549 cells
[3] = test system: SK-MEL-2; assay: Cytotoxicity against human SK-MEL-2 cells
[4] = test system: HCT-15; assay: Cytotoxicity against human HCT15 cells
[5] = test system: XF498; assay: Cytotoxicity against human XF498 cells

CC(C)C/C=C/[C@@H](C)[C@H]1CC[C@H]2C3=C[C@@H](O)[C@@]4(O)C[C@@H](O)CC[C@]4(C)[C@@]3(O)CC[C@]12C
EC50 [1]: > 5 µg/mL | EC50 [2]: > 5 µg/mL | EC50 [3]: > 5 µg/mL | EC50 [4]: > 5 µg/mL | EC50 [5]: > 5 µg/mL

CC[C@@H](/C=C/[C@@H](C)[C@H]1CC[C@H]2C3=C[C@@H](O)[C@@]4(O)C[C@@H](O)CC[C@]4(C)[C@@]3(O)CC[C@]12C)C(C)C
EC50 [1]: > 5 µg/mL | EC50 [2]: > 5 µg/mL | EC50 [3]: > 5 µg/mL | EC50 [4]: > 5 µg/mL | EC50 [5]: > 5 µg/mL

CC(C)[C@@H](C)/C=C/[C@@H](C)[C@H]1CC[C@H]2C3=C[C@@H](O)[C@@]4(O)C[C@@H](O)CC[C@]4(C)[C@H]3CC[C@]12C [CEREVISTEROL]
EC50 [1]: 6 µg/mL (≈ 13.9 µM) | EC50 [2]: 3.9 µg/mL (≈ 9.06 µM) | EC50 [3]: 2.8 µg/mL (≈ 6.5 µM) | EC50 [4]: 3 µg/mL (≈ 6.97 µM) | EC50 [5]: 3.3 µg/mL (≈ 7.66 µM)

CC[C@@H](/C=C/[C@@H](C)[C@H]1CC[C@H]2C3=C[C@@H](O)[C@@]4(O)C[C@@H](O)CC[C@]4(C)[C@H]3CC[C@]12C)C(C)C
EC50 [1]: > 5 µg/mL | EC50 [2]: > 5 µg/mL | EC50 [3]: > 5 µg/mL | EC50 [4]: > 5 µg/mL | EC50 [5]: > 5 µg/mL

COc1cccc2c1C(=O)c1c(O)c3c(c(O)c1C2=O)C[C@@](O)(C(=O)CO)C[C@@H]3O[C@H]1C[C@H](N)[C@H](O)[C@H](C)O1 (stereo in doubt) [DOXORUBICIN]
EC50 [1]: 0.03 µg/mL (≈ 0.0552 µM) | EC50 [2]: 0.01 µg/mL (≈ 0.0184 µM) | EC50 [3]: 0.01 µg/mL (≈ 0.0184 µM) | EC50 [4]: 0.05 µg/mL (≈ 0.092 µM) | EC50 [5]: 0.01 µg/mL (≈ 0.0184 µM)

CC(C)[C@H](C)/C=C/[C@@H](C)[C@H]1CC[C@H]2C3=C[C@@H](O)[C@@]4(O)C[C@@H](O)CC[C@]4(C)[C@H]3CC[C@]12C
EC50 [1]: > 5 µg/mL | EC50 [2]: > 5 µg/mL | EC50 [3]: > 5 µg/mL | EC50 [4]: > 5 µg/mL | EC50 [5]: > 5 µg/mL

CC(C)C/C=C/[C@@H](C)[C@H]1CC[C@@H]2[C@]1(C)CC[C@@]13O[C@@]21[C@H](O)[C@@H]1O[C@@]12C[C@@H](O)CC[C@]32C [HOMAXISTEROL B1]
EC50 [1]: 3.5 µg/mL (≈ 8.13 µM) | EC50 [2]: 3.9 µg/mL (≈ 9.06 µM) | EC50 [3]: 3.1 µg/mL (≈ 7.2 µM) | EC50 [4]: 3.2 µg/mL (≈ 7.43 µM) | EC50 [5]: 3.4 µg/mL (≈ 7.9 µM)

CC(C)C/C=C/[C@@H](C)[C@H]1CC[C@H]2C3=C[C@@H](O)[C@@]4(O)C[C@@H](O)CC[C@]4(C)[C@H]3CC[C@]12C
EC50 [1]: > 5 µg/mL | EC50 [2]: > 5 µg/mL | EC50 [3]: > 5 µg/mL | EC50 [4]: > 5 µg/mL | EC50 [5]: > 5 µg/mL

CC(C)C/C=C/[C@@H](C)[C@H]1CC[C@H]2C3=CC(=O)[C@@]4(O)C[C@@H](O)CC[C@]4(C)[C@@]3(O)CC[C@]12C [HOMAXISTEROL C1]
EC50 [1]: 7 µg/mL (≈ 16.3 µM) | EC50 [2]: 5 µg/mL (≈ 11.6 µM) | EC50 [3]: 3.9 µg/mL (≈ 9.06 µM) | EC50 [4]: 3.7 µg/mL (≈ 8.59 µM) | EC50 [5]: 3.7 µg/mL (≈ 8.59 µM)

CO[C@@H]1C=C2[C@@H]3CC[C@H]([C@H](C)/C=C/CC(C)C)[C@@]3(C)CC[C@@H]2[C@@]2(C)CC[C@H](O)C[C@]12O
EC50 [1]: 7.1 µg/mL (≈ 16.5 µM) | EC50 [2]: 4.8 µg/mL (≈ 11.1 µM) | EC50 [3]: 3.4 µg/mL (≈ 7.89 µM) | EC50 [4]: 4.2 µg/mL (≈ 9.75 µM) | EC50 [5]: 4 µg/mL (≈ 9.29 µM)

CC(C)C/C=C/[C@@H](C)[C@H]1CC[C@H]2C3=C[C@H](O)[C@@]4(O)C[C@@H](O)CC[C@]4(C)[C@H]3CC[C@]12C [HOMAXISTEROL D1]
EC50 [1]: 3.9 µg/mL (≈ 9.36 µM) | EC50 [2]: 3.5 µg/mL (≈ 8.4 µM) | EC50 [3]: 3.1 µg/mL (≈ 7.44 µM) | EC50 [4]: 3.1 µg/mL (≈ 7.44 µM) | EC50 [5]: 3.1 µg/mL (≈ 7.44 µM)

CC(C)C(C)/C=C/[C@@H](C)[C@H]1CC[C@@H]2[C@]1(C)CC[C@@]13O[C@@]21[C@H](O)[C@@H]1O[C@@]12C[C@@H](O)CC[C@]32C (stereo not given in full)
EC50 [1]: 6.3 µg/mL (≈ 14.2 µM) | EC50 [2]: 7.1 µg/mL (≈ 16 µM) | EC50 [3]: 2.7 µg/mL (≈ 6.07 µM) | EC50 [4]: 4.8 µg/mL (≈ 10.8 µM) | EC50 [5]: 3.4 µg/mL (≈ 7.65 µM)

CC[C@@H](/C=C/[C@@H](C)[C@H]1CC[C@@H]2[C@]1(C)CC[C@@]13O[C@@]21[C@H](O)[C@@H]1O[C@@]12C[C@@H](O)CC[C@]32C)C(C)C (relative stereo) [HOMAXISTEROL B2]
EC50 [1]: 1.3 µg/mL (≈ 2.83 µM) | EC50 [2]: 1.4 µg/mL (≈ 3.05 µM) | EC50 [3]: 1.1 µg/mL (≈ 2.4 µM) | EC50 [4]: 1.1 µg/mL (≈ 2.4 µM) | EC50 [5]: 1 µg/mL (≈ 2.18 µM)

CC[C@@H](/C=C/[C@@H](C)[C@H]1CC[C@H]2C3=C[C@@H](OC)[C@@]4(O)C[C@@H](O)CC[C@]4(C)[C@H]3CC[C@]12C)C(C)C
EC50 [1]: 7 µg/mL (≈ 15.3 µM) | EC50 [2]: 4.4 µg/mL (≈ 9.59 µM) | EC50 [3]: 5.2 µg/mL (≈ 11.3 µM) | EC50 [4]: 4.9 µg/mL (≈ 10.7 µM) | EC50 [5]: 3.8 µg/mL (≈ 8.28 µM)
